Reference: patent US11672792B2, “Topical formulations comprising montelukast and combinations with mussel adhesive proteins” (ENLITISA (SHANGHAI) PHARMACEUTICAL CO., LTD, priority 2017, dated 2023)

Experiments:
[1] = test system: carrageenan-induced acute inflammation in subcutaneous air pouch; test: Air Pouch Model II (Example 2); assay type: in vivo, mice; set-up: Fibroplastic proliferation score / Inflammation score / Activity score / Edema Score / Sum (of histology scores): scale not given here; settings: Dopamine 2 mg, MAP 250 μg, Mon 100 μg
Description: In Table 6, “Dex” is an abbreviation for dexamethasone and “Dopamine” is a 4 mg/mL aqueous solution of dopamine hydrochloride (Shanghai Aladdin Bio-Chem Technology Co., Ltd., Shanghai, China).
The histological specimens were analysed and an inflammation score, an activity score and a fibroplastic proliferation score were estimated as in Example 1 above and are tabulated in Table 9 below.

burn wounds = test: Burn Injury Model (Example 3); assay type: in vivo, Sprague-Dawley rats; settings: per wound: dexamethasone 0.4 mg, MAP 0.25 mg, montelukast 0.25 mg, once daily topically
Description: Healthy adult male Sprague-Dawley rats weighing between 200 and 300 g were supplied by Beijing Vital River Laboratory Animal Technology Co. Ltd, Beijing, China.
Prior to any experiments being conducted, rats were housed under standardized conditions (at a constant temperature or 22 t 2° C., with alternating 12 hour periods of light and darkness) and were fed on a standard rat diet with water.
Rats were anaesthetised with 3% chloral hydrate (Sinopharm Chemical Reagent Co., Ltd., Shanghai, China) (1 mL/100 g of body weight) administered by intraperitoneal injection. The dorsal trunk was of each rat was shaved with an electric razor and surgically prepared with 70% alcohol scrubs. A constant temperature and constant pressure scald instrument (YLS-5Q, Shandong Academy of Medical Sciences, China) was employed, as this allows for a precise measurement of pressure applied to the skin surface. Thermal injury was induced by heating a stylus (with a surface area of 4 cm^2) to 80° C. and applying the stylus to the surface of the skin for a contact time of 18 seconds. 500 grams of pressure was applied during the operation. In this way, four two-degree shallow to deep burn wounds were created on each rat. Test compounds or vehicle were applied to the surface of the wound.
Rats were kept in separate cages but were allowed to move freely throughout the test period. In the first treatment, 500 μL of the relevant solutions was applied about 3 to 4 hours after the surgery (Day 0) and then once daily for the next 7 days. Gross appearances of the scald wounds were observed every day. Photographs were taken at 48 hours (Day 2), and on the 4th (Day 4) and 7th (Day 7) days with a digital camera to compare wound healing. The skin lesions were evaluated for the following criteria: blistering, swelling, redness, crust, bleeding, secretion, granulation tissue and scar tissue. The degree of healing was expressed as the wound contraction ratio (WCR): WCR=(A0−At)/A0×100% in which A0 and At refer to the initial area and the wound area at time t, respectively.
On Days 2, 4 and 7 after application of the burn, two rats were sacrificed and the burned skins excised. The freshly isolated skin was fixed in 10% neutral buffered formalin (which contained 4% of formaldehyde). This was used for histological embedding, staining and immunohistochemical studies.
Administered solutions were made up substantially as described in Example 1 above.
Burn scores are shown in Table 12 below and are illustrated in FIG. 3. Skin samples were sent to the Department of Pathology of Nanjing Hospital of Chinese Medicine, China. Samples were fixed and embedded, and histological sections were cut and stained. The stained sections were examined under a light microscope and pictures were taken. All pictures were interpreted and scored according to the following criteria: first degree—the epidermis was damaged and the substrate remains intact (score 1 point); superficial second degree—the epidermis was completely damaged and the papillary layer was damaged (1.5 points): deep second degree—the dermis was injured into the reticular layer and retain some dermis (2.5 points); and third degree—the dermis was completely damaged and the muscles and/or bones affected (3 points).

Row | SMILES | Activity score ([1]; Dex 400 μg) | Edema Score ([1]; Dex 400 μg) | Fibroplastic proliferation score ([1]; Dex 400 μg) | IFN-γ in exudate (ELISA) ([1]; Dex 400 μg) | IL-6 in exudate (ELISA) ([1]; Dex 400 μg) | Inflammation score ([1]; Dex 400 μg) | Leukocyte count in exudate ([1]; Dex 400 μg) | Lymphocyte count in exudate ([1]; Dex 400 μg) | Monocyte count in exudate ([1]; Dex 400 μg) | Neutrophil count in exudate ([1]; Dex 400 μg) | Sum (of histology scores) ([1]; Dex 400 μg) | Exudate volume ([1]; doses/mouse: Dex 400 μg) | Pouch Wall Weight ([1]; doses/mouse: Dex 400 μg) | Burn score (burn wounds; Day 2) | Burn score (burn wounds; Day 4) | Burn score (burn wounds; Day 7)
1 | C[C@@H]1C[C@H]2[C@@H]3CCC4=CC(=O)C=C[C@]4(C)[C@@]3(F)[C@@H](O)C[C@]2(C)[C@@]1(O)C(=O)CO [Dexamethasone, dexamethasone] | 0.33 | 0.83 | 0.00 | 238.91 ± 272.27 | 3697.30 ± 5112.52 | 0.83 | 880000 mL⁻¹ | 30000 mL⁻¹ | 670000 mL⁻¹ | 130000 mL⁻¹ | 2.00 | 2.87 ± 0.06 mL | 0.45 ± 0.01 g | 2.25 | 2.64 | 2.50
2 | CC(C)(O)c1ccccc1CC[C@@H](SCC1(CC(=O)O)CC1)c1cccc(/C=C/c2ccc3ccc(Cl)cc3n2)c1 [Mon, Montelukast sodium] | – | – | 0.00 | – | – | – | – | – | – | – | – | – | – | 1.50 | 2.38 | 2.00
